Laboratory results taken from patent US7217815B2, “2-beta -modified-6-substituted adenosine analogs and their use as antiviral agents” (Valeant Pharmaceuticals North America, priority 2002, dated 2007).

How the values were obtained:
[1] = system: HCV replicon RNA in replicon cells (Huh-7); test: HCV replicon assay; type: cell-based; details: Huh-7 replicon cells, 3 days incubation, reduction of HCV RNA (Quantigene)
Method: The replicon cells (Huh-7) contain replicating HCV replicon RNA, which was modified in the structural region (replacing the structural region with a neomycin resistance marker). Survival of the replicon cells under G418 selection relies on the replication of HCV RNA and subsequently expression of neomycin phosphoryltransferase. The ability of modified nucleoside libraries and compounds to suppress HCV RNA replication was determined using the Quantigene Assay Kit from Bayer. The assay measures the reduction of HCV RNA molecules in the treated cells. Replicon cells were incubated at 37° C. for 3 days in the presence of nucleoside libraries and compounds before harvested for detection. HCV subgenomic replicon cell line was provided by Dr. Bartenschlager. The assay protocol was modified based on literature procedure (V. Lohmann, F. Korner, J. O. Koch, U. Herian, L. Theilmann, R. Bartenschlager, Science, 1999, 285, 110–113).

[2] = system: Bovine viral diarrhea virus (BVDV) (strain NADL); test: Assay for inhibition of BVDV; type: cell-based; details: MDBK cells
Method: Bovine viral diarrhea virus (BVDV) (strain NADL) was provided by Dr. Ruben Donis and propagated in MDBK cells (ATCC). The nucleoside libraries and compounds were tested utilizing the modified protocol (V. B. Vassilev, M. S. Collett, R. O. Donis, J. Viol. 1997, 71, 471–478; S. G. Bagginski, D. C. Pevear, M. Seipel, S. C. C. Sun, C. A. Benetatos, S. K. Chunduru, C. M. Rice, M. S. Collett, Proc. Natl. Acad. Sci. U.S.A. 2000, 97, 7981–7986)

Compound	EC50 [1] [µM]	EC50 [2] [µM]	EC50 ([1]; Hepatitis C virus, 72 h) [µM]	EC50 ([2]; Bovine viral diarrhea virus isolates and strains) [µM]
CN(C)Nc1ncnc2c1ncn2[C@@H]1O[C@H](CO)[C@@H](O)[C@@]1(C)O [Compound S1-12, 6-(N,N-Dimethylhydrazino)-9H-(2′-β-C-methyl-β-D-ribofuranosyl)purine]	< 10	< 25	–	–
C[C@@]1(O)[C@H](O)[C@@H](CO)O[C@H]1n1cnc2c(NNC=O)ncnc21 [Compound S1-14, 6-[(N^2-formyl)hydrazino]-9H-(2′-β-C-methyl-β-D-ribofuranosyl)purine]	10 to 100	> 100	–	–
C[C@@]1(O)[C@H](O)[C@@H](CO)O[C@H]1n1cnc2c(NCCN)ncnc21 [Compound S2-1, N^6-(2-Aminoethyl)-9H-(2′-β-C-methyl-β-D-ribofuranosyl)adenine]	< 10	25 to 100	–	–
C[C@@]1(O)[C@H](O)[C@@H](CO)O[C@H]1n1cnc2c(N(N)CCO)ncnc21 [Compound S1-13, 6-[N^1-(Hydroxyethyl)hydrazino]-9H-(2′-β-C-methyl-β-D-ribofuranosyl)purine]	< 10	> 100	–	–
CC(=O)NNc1ncnc2c1ncn2[C@@H]1O[C@H](CO)[C@@H](O)[C@@]1(C)O [Compound S1-17, 6-[N^2-(Acetyl)hydrazino]-9H-(2′-β-C-methyl-β-D-ribofuranosyl)purine]	< 10	< 25	–	–
COC(=O)NNc1ncnc2c1ncn2[C@@H]1O[C@H](CO)[C@@H](O)[C@@]1(C)O [Compound S1-16]	< 10	25 to 100	–	–
CON(C)c1ncnc2c1ncn2[C@@H]1O[C@H](CO)[C@@H](O)[C@@]1(C)O [Compound S1-20, 6-(N,O-Dimethylhydroxylamine)-9H-(2′-β-C-methyl-β-D-ribofuranosyl)purine]	10 to 100	> 100	–	–
C[C@@]1(O)[C@H](O)[C@@H](CO)O[C@H]1n1cnc2c(NO)ncnc21 [Compound S1-19, 6-Hydroxyamino-9H-(2′-β-C-methyl-β-D-ribofuranosyl)purine]	< 10	25 to 100	–	–
CSc1cccc(Nc2ncnc3c2ncn3[C@@H]2O[C@H](CO)[C@@H](O)[C@@]2(C)O)c1 [Compound S1-4, N^6-[3-(Methylthio)phenyl]-9H-(2′-β-C-methyl-β-D-ribofuranosyl)adenine]	> 100	> 100	–	–
C[C@@]1(O)[C@H](O)[C@@H](CO)O[C@H]1n1cnc2c(NC[C@H]3CCCO3)ncnc21 [Compound S1-6, N^6-(R-Tetrahydrofurfuryl)-9H-(2′-β-C-methyl-β-D-ribofuranosyl)adenine]	> 100	> 100	–	–
C[C@@]1(O)[C@H](O)[C@@H](CO)O[C@H]1n1cnc2c(NCCNc3ncnc4c3ncn4[C@@H]3O[C@H](CO)[C@@H](O)[C@@]3(C)O)ncnc21 [Compound S2-2, N,N′-Bis[N^6-9H-(2′-β-C-methyl-β-D-ribofuranosyl)adenin-6-yl]ethylenediamine]	–	–	10 to 100	> 100
N^6-(2-Phenylpropyl)-9H-(2′-β-C-methyl-β-D-ribofuranosyl)adenine [Compound S1-5]	> 100	> 100	–	–
CN(N)c1ncnc2c1ncn2[C@@H]1O[C@H](CO)[C@@H](O)[C@@]1(C)O [Compound S1-15, 6-(N^1-methylhydrazino)-9H-(2′-β-C-methyl-β-D-ribofuranosyl)purine]	< 10	> 100	–	–
CC1(C)OCC(CNc2ncnc3c2ncn3[C@@H]2O[C@H](CO)[C@@H](O)[C@@]2(C)O)O1 (stereo partly drawn) [Compound S1-8, N^6-(2,2-Dimethyl-1,3-dioxolane-4-methyl)-9H-(2′-β-C-methyl-β-D-ribofuranosyl)adenine]	> 100	> 100	–	–
C[C@@]1(O)[C@H](O)[C@@H](CO)O[C@H]1n1cnc2c(NN)ncnc21 [Compound S1-11, 6-(Hydrazinyl)-9H-(2′-β-C-methyl-β-D-ribofuranosyl)purine]	< 10	25 to 100	–	–
CCOc1ccccc1CNc1ncnc2c1ncn2[C@@H]1O[C@H](CO)[C@@H](O)[C@@]1(C)O [Compound S1-7, N^6-(2-Ethoxybenzyl)-9H-(2′-β-C-methyl-β-D-ribofuranosyl)adenine]	10 to 100	> 100	–	–
C[C@@]1(O)[C@H](O)[C@@H](CO)O[C@H]1n1cnc2c(NCCO)ncnc21 [Compound S1-9, N^6-[2-(Hydroxy)ethyl]-9H-(2′-β-C-methyl-β-D-ribofuranosyl)adenine]	10 to 100	> 100	–	–
C[C@@]1(O)[C@H](O)[C@@H](CO)O[C@H]1n1cnc2c(ONC(=O)OCc3ccccc3)ncnc21 [Compound S1-22, 6-[(N-Benzyloxycarbonyl)aminoxy]-9H-(2′-β-C-methyl-β-D-ribofuranosyl)purine]	< 10	> 100	–	–
CC(C)(C)OC(=O)NOc1ncnc2c1ncn2[C@@H]1O[C@H](CO)[C@@H](O)[C@@]1(C)O [Compound S1-21, 6-(N-(t-Butyloxycarbonyl)aminoxy]-9H-(2′-β-C-methyl-β-D-ribofuranosyl)purine]	< 10	> 100	–	–
C[C@@]1(O)[C@H](O)[C@@H](CO)O[C@H]1n1cnc2c(NNS(C)(=O)=O)ncnc21 [Compound S1-18]	< 10	25 to 100	–	–
